We go through six molecules from paper PMC12003248, “ERCC6L2 mitigates replication stress and promotes centromere stability” (Cell Reports, 2023).

Assay [1] deals with endogenous PCNA. The assay can be described thus: Colocalization of YFP-ERCC6L2 constructs with endogenous PCNA. Type of assay: cell-based, human. As to conditions: YFP-tagged, U2OS cells. From the text: (§1) Figure 4 ERCC6L2 contains an atypical PCNA-binding motif (A) ERCC6L2 colocalizes with PCNA at CENP-C-negative foci. U2OS cells transfected with YFP-ERCC6L2 were stained for CENP-C and PCNA after pre-extraction of soluble proteins. ERCC6L2-and PCNA-positive, but CENP-C negative foci (red arrows) are marked in zoomed images. (B) ERCC6L2 colocalizes with RPA at CENP-C-negative foci. U2OS cells transfected with YFP-ERCC6L2 were stained for CENP-C and RPA. ERCC6L2- and RPA-positive, but CENP-C-negative foci (red arrows) are marked in zoomed images. (C) Colocalization of the C-terminal ERCC6L2^701−1561 fragment with endogenous PCNA. (D) PCNA pull-down with biotinylated peptides. Biotinylated PIP-box and APIM motif peptides were bound to streptavidin beads and incubated with recombinant PCNA. Interactions were assayed by western blotting with PCNA antibody. Wild-type ZRANB3 PIP-box peptide (ZRANB3 PIP) was used as a positive control. Mutant ZRANB3 PIP-box peptide (Q519A, F525A, and F526A, ZRANB3 PIP^∗) served as a negative control. […] Interactions were assessed by western blotting against PCNA (shown on the right). […]
U2OS cells (ATCC) were grown in 24 well plates. […] Samples were analyzed by confocal microscopy using Olympus FV1200 or Zeiss 880 Airyscan microscopes, or using EVOS M7000 Imaging System. […]

Another assay relates to laser-induced DNA breaks. Description: Recruitment to laser-induced DNA breaks. It is filed as cell-based, human. As to conditions: U2OS cells, 405 nm laser, 10 μM BrdU 16 h. On the procedure:
U2OS cells were grown in glass-bottomed 24 well plates and transfected with YFP-ERCC6L2 constructs using Lipofectamine 2000 (Life Technologies). Transfected cells were then incubated with 10 μM BrdU for 16 h at 37°C. Laser microirradiation was carried out on an Olympus FV1200 confocal microscope equipped with an environmental chamber. Localised DNA damage was induced in cells showing YFP-tagged protein expression using a 405 nm laser. Recruitment of the proteins was monitored by live cell imaging at 488 nm.

Assay [2] concerns His-tagged human PCNA. The assay can be described thus: PCNA pull-down with biotinylated peptides. It is filed as binding. The conditions noted are these: biotinylated peptide on streptavidin beads; purified His-tagged PCNA, 1 h at 4°C; 50 mM Tris-HCl pH 8, 150 mM NaCl, 1 mM DTT, 0.2% Triton X-; anti-PCNA western blot.
Source text: as §1
Custom synthetic biotinylated peptides were synthetised by Genscript and dissolved in 50 mM Tris-HCl pH 8, 150 mM NaCl. […] Finally, the beads were boiled in the SDS-PAGE loading buffer, and analyzed by anti-PCNA Western blotting (1:1000 dilution).
A general note: In western blotting, separated proteins are transferred to a membrane and probed.

For the next assay, the system named is Polα. As to conditions: cited from earlier work. From the text: Because centromeres impose specific challenges for DNA replication machinery, we next sought to address the impact of ERCC6L2 deficiency on the progression of DNA replication. […] However, further analyses, based on EdU incorporation over longer time frames, highlighted differences between the two cell lines. Loss of ERCC6L2 reduced efficiency of EdU incorporation in unperturbed c ...

Assay [3] has as its system endogenous PCNA. The assay can be described thus: Immunoprecipitation of Strep-tagged ERCC6L2 fragment, endogenous PCNA. Type of assay: binding, human. The conditions noted are these: 293T cells, Twin-Strep construct, StrepTactin beads, immunoblot.
In assay [4] the test system is double-stranded DNA derived from α-satellite DNA sequence. The assay can be described thus: EMSA, double-stranded DNA. Type of assay: binding. The conditions noted are these: His-tagged fragment; 2.5 nM labeled substrate; 30 min, room temperature; 50 mM Tris-HCl pH 7.5; 11, 22, 44, 88, 176 nM (legend Figure 1H). (In general: In EMSA bound probe runs differently from free probe, usually more slowly.)

The test system of assay [5] is single-stranded DNA derived from α-satellite DNA sequence. The assay can be described thus: EMSA, single-stranded DNA. Type of assay: binding. The conditions noted are these: His-tagged fragment; 2.5 nM labeled substrate; 30 min, room temperature; 50 mM Tris-HCl pH 7.5; 11, 22, 44, 88, 176 nM (legend Figure 1H).
Assay [6] concerns His-tagged human PCNA. The assay can be described thus: PCNA pull-down with GST-tagged fragment. It is filed as binding. As to conditions: GST-tagged fragment on GST beads, 1 h at 4°C, 50 mM Tris-HCl pH 8, 150 mM NaCl, 1 mM DTT, 0.2% Triton X-, western blot.

Where no end group is shown, it is not given here.

Turning to “full-length ERCC6L2: full-length human ERCC6L2, YFP-tagged”, the “colocalization with endogenous PCNA” value with endogenous PCNA [1] is listed as “largely absent from PCNA foci in S-phase cells”. Further, the “mobilization to laser-induced DNA breaks” value in the assay with laser-induced DNA breaks is “efficient mobilization”.

“ERCC6L2^790−811 peptide: atypical ERCC6L2 peptides (residues 790–811) containing the WT sequence (LLQCGFSKLLETKCKAVEDSDG; cysteine pairing not given here; also: biotinylated, position not given here; UniProt Q5T890 790-811, looked up, fragment)”: the “interaction with PCNA, pull-down” value in the assay on His-tagged human PCNA [2] is reported as “comparable to the one observed with the classical PIP-box peptide from ZRANB3”.

For `O=C(O)c1ccc2cc(-c3ccc(O)c(C45CC6CC(CC(C6)C4)C5)c3)ccc2c1` [CD437], in the assay on Polα, the “uncoupling of DNA synthesis” value was “causes uncoupling of leading and lagging strand DNA synthesis”.

B1: ERCC6L2^701−1053: Strep-tagged ERCC6L2 fragment (protein)
chain: QGSCLTKDILEREGQVEAGIMTATTWLKEGPPAHKLEMPRQPDCQECRGTEQAAEPLAKEACDLCSDFSDEEPVGATGIKTAKNKAPDSSKASSSPGQLTLLQCGFSKLLETKCKAVEDSDGNTASDDESSDEQPTCLSTEAKDAGCEKNQDSLGTSKHQKLDNILNPKEKHIFYKSEKILEQNISSKSDEKKIKNTDKHCILQNVTESEDSDVICPTQYTTERFPDNSIRFKPPLEGSEDSETEHTVKTRNNDNSRNTDDKRNGIISKKLSPENTTLKSILKRKGTSDISDESDDIEISSKSRVRKRASSLRFKRIKETKKELHNSPKTMNKTNQVYAANEDHNSQFIDDYS
modifications: left off: Strep tag, end not stated, kept
notes: Strep-tagged ERCC6L2 fragment
With B1, the “endogenous PCNA in immunocomplexes” value in the assay with endogenous PCNA [3] is “detected”.

B2: ERCC6L2^1053−1247: purified His-tagged ERCC6L2 fragment containing the VIGS motif (protein, UniProt Q5T890 1053-1247, looked up, fragment)
chain: FSFSKQSHRPRTIRDRTSFSSKLPSHNKKNSTFIPRKPMKCSNEKVVNQEQSYESMDKFLDGVQEVAYIHSNQNVIGSSKAENHMSRWAAHDVFELKQFSQLPANIAVCSSKTYKEKVDADTLPHTKKGQQPSEGSISLPLYISNPVNQKKKKVYHTNQTTFIIGETPKGIRRKQFEEMASYFNSSSVNEFAKHI
modifications: His tag
notes: purified His-tagged ERCC6L2 fragment containing the VIGS motif
With B2, the “formation of nucleoprotein complexes with double-stranded DNA (EMSA)” value in assay [4] is recorded as “formed stable nucleoprotein complexes”. The “formation of nucleoprotein complexes with single-stranded DNA (EMSA)” value in assay [5] was “formed stable nucleoprotein complexes”.

B3: GST-tagged ERCC6L2^753−819: GST-tagged ERCC6L2 fragment (residues 753–819) expressed in E. coli (protein)
chain: AAEPLAKEACDLCSDFSDEEPVGATGIKTAKNKAPDSSKASSSPGQLTLLQCGFSKLLETKCKAVED
modifications: left off: GST, end not stated, kept
notes: GST-tagged ERCC6L2 fragment (residues 753–819) expressed in E. coli
Regarding B3, the “interaction with PCNA, GST pull-down” value in the assay on His-tagged human PCNA [6] was “The interaction with PCNA could be demonstrated”.
